Measurements published in US9023853B2, “Janus kinase 2 (JAK2) inhibitor for the treatment of lupus” (Cephalon, Inc., priority 2010, dated 2015).

What was measured:
Type in all cases: in vivo, mouse
[1] = tested on: NZM mice; experiment: Lung histopathology in NZM mice
Description: For histological analyses, the left kidney and lung (NZM model only) from each animal was removed and fixed in 10% buffered neutral 10% formalin (EMD) for 48 hours on an orbital rocker at 25° C., then washed overnight with running dH2O and stored in 70% ethanol at 4° C. until ready to be processed. Kidney stains used for histological analyses included hematoxylin and eosin (H&E), Periodic Acid Schiff (PAS) and Trichrome stains (Wistar Institute, Philadelphia, Pa.). All 3 stained sections were used by the pathologist for scoring purposes. All histological scoring was performed blinded and by an independent board certified veterinary medical pathologist (Julie Engiles, VMD, DACVP; University of Pennsylvania). […]
(§1) Age mated, female, NZM or NZW/LacJ, mice were matured for the study of lupus nephritis for a total of 7 months or 210 days at which time urine was collected for proteinuria detection. Mice with 0.5-1.0 mg/ml of urine protein as determined by an optical density-based total protein precipitation assay and cross-checked for 30-300 mg/dl of protein as determined by a stick assay were considered proteinuria positive and selected for study entry. […] End-stage lupus nephritis was evaluated by histopathology and scored by a board certified pathologist for the assessment of total renal damage in diseased animals using the scoring method described by Smith et al (Smith, Dong et al. 2007). […]

[2] = tested on: TNFα; experiment: Serum TNFα in NZM mice
Description: For the processing of serum samples for cytokine analysis, frozen plasma at −80° C. was thawed on ice, vortexed, and centrifuged for 10 minutes to remove debris and aggregates. A total of 25-50 μL of serum was used for Luminex® assays following the manufacturer's instructions. Ten different mouse cytokines were measured using the mouse cytokine 10-plex bead kit (Invitrogen, Carlsbad, Calif., no. LMC0001). Briefly, filter plates (Millipore, Billerica, Mass., no. MAIPSWU10), were pre-wet with 200 μL of wash solution (kit component) and 25 μL of beads were added per well. […]
as §1

[3] = tested on: plasma cells; experiment: Spleen plasma cells by flow cytometry in NZM mice
Description: Antibodies used for flow cytometry consisted of anti-mouse CD138-APC (eBioscience, San Diego, Calif.), anti-mouse CD19-FITC (eBioscience, San Diego, Calif.), anti-mouse CD38-PE (eBioscience, San Diego, Calif.) and anti-mouse CD45R/B220-Cyc (eBioscience, San Diego, Calif.), Rat IgG1-APC isotype control (eBioscience, San Diego, Calif.), Rat IgG2a-PE isotype control (eBioscience, San Diego, Calif.). All samples were analyzed using an Accuri C6 Flow Cytometer. Complete media was used for all experiments involving the ex vivo culture of splenocytes for all Elispot experiments. Complete media consisted of RPMI1640 (Cellgro, Manassas, Va.), plus 1% Pen-Strep (Cellgro, Manassas, Va.), 1% L-Gln (Cellgro, Manassas, Va.), 1% NEAA (Cellgro, Manassas, Va.), β-ME (Cellgro, Manassas, Va.), plus 10% FBS (Cellgro, Manassas, Va.).
Washed, RBC-lysed splenocytes were stained for plasma cell markers as previously used in published reports (Neubert, Meister et al. 2008). As used herein the term “plasma cell” will refer to the following immunophenotype definition: Plasma cells were defined as live CD19-negative, CD45R/B220-negative, CD138-positive, CD38-positive events for the MRL/lpr model. A total of 200,000-500,000 events were collected per tube/sample. […]
as §1

[4] = tested on: ASCs specific for chromatin; experiment: Anti-chromatin antibody secreting B-cell Elispot, NZM spleen; conditions: NZM mice
Description: Age mated, female, NZM or NZW/LacJ, mice were matured for the study of lupus nephritis for a total of 7 months or 210 days at which time urine was collected for proteinuria detection. Mice with 0.5-1.0 mg/ml of urine protein as determined by an optical density-based total protein precipitation assay and cross-checked for 30-300 mg/dl of protein as determined by a stick assay were considered proteinuria positive and selected for study entry. Groups were normalized to contain a Gaussian distribution of proteinuria positive animals (i.e., ⅓ low proteinuria, ⅓ medium, ⅓ high) then randomized between groups before ear marking and taking baseline measures including urine and serum collections. A total of five mice from the total population were randomly selected for baseline kidney histology evaluation. Treatments and tests for each group are as described in FIG. 12. Briefly, with a minimum of 10 mice per group, COMPOUND A was administered at 100 mg/kg or 55 mg/kg, both twice a day and orally. […] Vehicle included 3% DMSO, 10% Solutol and 87% PBS. […] End-stage lupus nephritis was evaluated by histopathology and scored by a board certified pathologist for the assessment of total renal damage in diseased animals using the scoring method described by Smith et al (Smith, Dong et al. 2007). […] Day-98 or “end of treatment/study” represents 310 days of age for the NZM animals.

SMILES | lung infiltrates ([1]; COMPOUND A 55 mg/kg and 100 mg/kg, vs dexamethasone and vehicle) | serum TNFα decrease compared to vehicle ([2]; 55 mg/kg) [%] | serum TNFα decrease compared to vehicle ([2]; 100 mg/kg) [%] | spleen plasma cells decrease compared to vehicle ([3]; COMPOUND A 55 mg/kg) [%] | spleen plasma cells decrease compared to vehicle ([3]; COMPOUND A 100 mg/kg) [%] | ASCs specific for chromatin, decrease ([4]; COMPOUND A 55 mg/kg) [%] | ASCs specific for chromatin, decrease ([4]; COMPOUND A 100 mg/kg) [%] | lung infiltrates ([1]; CTX 50 mg/kg once weekly ip) | levels of spleen plasma cells ([3]; cyclophosphamide 50 mg/kg once weekly ip) | ASCs specific for chromatin, decrease ([4]; CTX 50 mg/kg once weekly ip) [%]
CN1CCN(c2cccc(Nc3nc4c(-c5ccc(S(C)(=O)=O)cc5)cccn4n3)c2)CC1 [COMPOUND A, [8-(4-methanesulfonyl-phenyl)-[1,2,4]triazolo[1,5-a]pyridin-2-yl]-[3-(4-methyl-piperazin-1-yl)-phenyl]-amine] | prevented lung infiltrates | 92.3 | 88.3 | 57.6 | 52.9 | 97.4 | 100 |  |  | 
O=P1(N(CCCl)CCCl)NCCCO1 (stereo not shown) [CTX, cyclophosphamide, reference compound] |  |  |  |  |  |  |  | prevented lung infiltrates | the decrease was not significant | 100
